System: Imported red fire ants, Solenopsis invicta
Test: Fire ant three-chambered container bioassay with treated sand (repellency and mortality)
Type: in vivo
Settings: for Percent ants in the sand area after 15 min / Number of ants (% ± SE) in the sand area after 15 min (test after 40 days): mean ± SE; for Living ants found in the sand area over seven days: FIG. 1; for Living ants found in the sand area over 7 days: FIG. 3
Description: Nootkatone was purchased from a commercial source (Lancaster Synthesis Inc. Windham, N.H.). The source of the vetiver oil was The Good Scents Company (Oak Creek, Wis.). Three-chambered clear plastic containers (17×8×4 cm; Pioneer Packaging Co., North Dixon, Ky.) were used to test the effect of nootkatone and vetiver oil on the fire ants. Each rectangular container (17×8×4 cm) was divided into three equal compartments with two inner walls. A small hole (0.5 cm diameter) was melted at the bottom of each of the inner walls to permit fire ant access to all chambers. The top inner sides of the containers were coated with FLUON® (Northern Products, Inc., Woonsocket, R.I.) to prevent ants from escaping. Into the far left chamber, designated the “nest area,” was placed a 55 mm #2 Whatman filter paper circle (Whatman International, Maidstone, England) moistened with 0.5 ml ddH2O to serve as a substrate. For a food source, a second 55 mm #2 Whatman filter paper circle was moistened with 0.5 ml 10% sucrose solution and placed in the far right chamber (“feeding area”). In the middle chamber, 30 g of #4 fine blasting sand (Easy Crete, Inc., Greenwell Springs, La.) moistened with 3 ml ddH2O was added. The sand had previously been treated by mixing with ethanol only (the controls) or with ethanol and solutions of nootkatone or vetiver oil to obtain final concentrations of 10 μg/g sand and 100 μg/g sand. The treated sand was allowed to air-dry for 2 hr in a ventilated hood before placing into the container.
Imported red fire ants, Solenopsis invicta, were collected the day before beginning the experiment from two Louisiana colonies (Colony A and Colony B) whose nests were 50 m apart. For each container, 30 workers were placed in the nest area in a small Petri dish (3.5 cm diameter) with the lid closed initially. The total number of containers was 30; 15 for each colony. For each colony, three replicates were established for each of the following treatments: a control; 10 μg/g nootkatone ([…]), 100 μg/g nootkatone (“Noot-100”), 10 μg/g vetiver oil (“Vet-10”), […].
After the ants were acclimated, the lid on the Petri dish was removed. Ant behavior was observed during the first 15 min for the following: time for the first ant to cross into the middle chamber; time for the first ant to cross into the feeding area; and number of ants in the middle chamber after 5, 10, and 15 min. The plastic containers were kept closed with lids in a thermostatic chamber at 27° C. for one week. Each day at the same time, the numbers of live and dead ants in each chamber were noted.
To test for effectiveness of nootkatone and vetiver oil after the passage of time, the above experiment was repeated 40 days later with sand that had been treated at the same time as the above experiment. For 40 days, the sand had been maintained in separate chambers with non-hermetic lids in a dark room at room temperature. For this second experiment, fire ants were freshly collected from two different Louisiana colonies.
The number of ants, expressed as a percent of the total number in the container, found in the treated area after the first 15 minutes was compared using a two-way ANOVA followed by Newman-Keuls post-hoc test, considering the factors “colony” (A, B) and “treatment” (Control, Noot-100, Noot-10, Vet-100, Vet-10). Data for both the number of live and dead ants (expressed as percent of the total) during the seven days of the experiment were analyzed with 2-way ANOVA for repeated measures followed by Newman-Keuls post-hoc tests, considering the variables “colony” and “treatment” and the variable “day” as the repeated factor. All data were analyzed using Statistica 5.5 (1999 edition, Statsoft Inc., Tulsa, Okla.).

SMILES: C=C(C)C1CCC2=CC(=O)CC(C)C2(C)C1 (stereo not drawn) [nootkatone, 4,4a,5,6,7,8-hexahydro-6-isopropenyl-4,4a-dimethyl-2(3H)-naphthalone]
- Percent ants in the sand area after 15 min (10 μg/g sand, sand treated 2 hr prior): 23.89 ± 3.35 b %
- Number of ants (% ± SE) in the sand area after 15 min (test after 40 days) (10 μg/g sand, sand treated 40 days prior): 26.11 ± 3.07 b %
- Percent ants in the sand area after 15 min (100 μg/g sand, sand treated 2 hr prior): 13.33 ± 2.42 b %
- Number of ants (% ± SE) in the sand area after 15 min (test after 40 days) (100 μg/g sand, sand treated 40 days prior): 13.89 ± 1.99 b %
- Living ants found in the sand area over seven days (highest concentration (100 μg/g), sand treated 2 hr prior): Almost no ants
- Cumulative mortality over 7 days (highest concentration (100 μg/g), sand treated 2 hr prior, FIG. 2): highest
- Living ants found in the sand area over 7 days (highest concentration (100 μg/g), sand treated 40 days prior): Almost no ants
- Cumulative mortality over 7 days (highest concentration (100 μg/g), sand treated 40 days prior, FIG. 4): always greatest
- Cumulative mortality over 7 days (lower concentration (10 μg/g), sand treated 40 days prior, compared with highest concentration, FIG. 4): significantly lower
- Living ants found in the sand area over seven days (lowest concentration (10 μg/g), sand treated 2 hr prior, vs controls): substantially lower numbers of ants
- Living ants found in the sand area over 7 days (lowest concentration (10 μg/g), sand treated 40 days prior, vs controls): significantly lower numbers of ants
- Effectiveness forty days after the initial application (sand treated 40 days prior): still effective

Source: patent US6906108B2, “Extracts of vetiver oil as repellent and toxicant to ants, ticks, and cockroaches” (Board of Supervisors of Louisiana State University and …, priority 2001, dated 2005)
